Data set [1] in a line: Clearance in po dosed rat blood. It counts as ADME, organism-based.
Data set [2] can be described thus: Half life in po dosed rat. It counts as ADME, organism-based. The note with it: in vivo.
In a further data set the test system is Rattus norvegicus. Put plainly: Volume of distribution at steady state in po dosed rat. It counts as ADME, organism-based. Particulars: in vivo.
Data set [3] is described as follows: Oral bioavailability in rat. The note with it: in vivo. It counts as ADME, organism-based.
Data set [4] is described as follows: Cmax in Hartley guinea pig at 0.5 to 15 mg/kg, iv. It counts as ADME, organism-based, Cavia porcellus. More on the design: dose 0.5-15 mg/kg, route intravenous. Particulars: in vivo.

This note sets out measurements from ChEMBL document CHEMBL1153718, “1,2,4-Triazolyl azabicyclo[3.1.0]hexanes: a new series of potent and selective dopamine D(3) receptor antagonists” (J Med Chem, 2010).

In turn, `Cc1ncccc1-c1nnc(SCCCN2C[C@@H]3C[C@]3(c3ccc(C(F)(F)F)cc3)C2)n1C` yielded a CL/F in data set [1] of 18 mL/min/kg. The same compound gave a half-life in data set [2] of 2.1 h. This compound also returned a Vdss with Rattus norvegicus of 2.5 L/kg. In data set [3], this compound had a bioavailability of 50%. For the same compound, the peak level in data set [4] (Cmax) was 6240 ng/mL.
Consider `Cc1nc(C)c(-c2nnc(SCCCN3C[C@@H]4C[C@]4(c4ccc(C(F)(F)F)cc4)C3)n2C)s1`, for which, in data set [1], the apparent clearance (CL/F) was found to be 26 mL/min/kg. The compound also gave a half-life in data set [2] of 2 h. Besides, the Vdss with Rattus norvegicus stood at 3.9 L/kg. The compound also gave a bioavailability in data set [3] of 23%. Further, in data set [4], the Cmax was found to be 8320 ng/mL.
On to `Cn1c(SCCCN2C[C@@H]3C[C@]3(c3ccc(C(F)(F)F)cc3)C2)nnc1-c1ccnnc1`, for which the CL/F in data set [1] worked out at 13 mL/min/kg. This compound showed a half-life in data set [2] of 2.1 h. Further, in the data set with Rattus norvegicus, the Vdss amounted to 2.2 L/kg. For the same compound, the bioavailability in data set [3] is 46%. In data set [4], this compound displayed a maximum concentration (Cmax) of 9580 ng/mL.
On to `Cc1ncoc1-c1nnc(SCCCN2CC3CC3(c3ccc(C(F)(F)F)cc3)C2)n1C` (racemic), for which the CL/F in data set [1] came to 14 mL/min/kg. The same compound had a half-life in data set [2] of 3.2 h. The Vdss in the data set with Rattus norvegicus stood at 3.5 L/kg. In data set [3], this compound came in with a bioavailability of 85%.
As to `Cc1ncoc1-c1nnc(SCCCN2CC3CC3(c3ccc(Cl)cc3)C2)n1C` (single isomer, unassigned; 51), the CL/F in data set [1] is 40 mL/min/kg. For the same compound, the half-life in data set [2] is 1.3 h. The same compound gave a Vdss in the data set with Rattus norvegicus of 2.6 L/kg. The bioavailability in data set [3] turned out to be 31%.
`Cc1ncoc1-c1nnc(SCCCN2CC3CC3(c3ccc(C(F)(F)F)cc3F)C2)n1C` (single isomer, unassigned; 74) showed a CL/F in data set [1] of 18 mL/min/kg. In addition, in data set [2], the half-life was 3.7 h. This compound gave a Vdss in the data set with Rattus norvegicus of 4.3 L/kg. Besides, the bioavailability in data set [3] was 47%. This compound also showed a Cmax in data set [4] of 8640 ng/mL.
